In patent publication US20160031935A1, “SMALL MOLECULE MODULATORS OF PCSK9 AND METHODS OF USE THEREOF” (ADAERATA, LIMITED PARTNERSHIP, priority 2013, published 2016):

Columns and labels:
Assay type in all cases: cell-based, human
[1] = tested on: HepG2 stable cells over-expressing WT PCSK9(+V5); assay: MTT toxicity assay; details: 33.3 μM or less; 24 h
Experimental: HepG2 stable cells over-expressing hPCSK9(+V5) were seeded in complete DMEM (high glucose+sodium pyruvate) (Wisent)+10% FBS media in 96-well plates (Greiner BioOne) at a density of 1×10^5 cells/well (100 μl) and incubated for 20 hours. Cells were rinsed once with 100 ul/well of serum free DMEM media, followed by addition of 100 μl/well of DMEM (high glucose+sodium pyruvate) (Wisent)+0.07% BSA (Sigma-Aldrich) media containing compound at various concentrations (11, 33, 100 μM) or DMSO control (0.4% final) followed by overnight (24 hours) incubation. The MTT assay (Promega) consisted of addition of 20 μl/well MTT reagent and incubation for 45 minutes at 37° C., following the manufacturer's instructions. Absorbance was recorded at 490 nm and corrected for background due to nonspecific absorbance (690 nm).
For the MTT toxicity assay, HepG2 stable cells over-expressing WT PCSK9(+V5) were seeded in 96-well plates (Greiner BioOne) and incubated for 20 hours. Following a brief wash, cells were incubated overnight (24 hours) in the presence of increasing concentrations (11, 33, 100 μM) of compounds or in the presence of DMSO (control). The MTT assay (Promega) consisted of addition of 20 μl/well MTT reagent and incubation for 45 minutes at 37° C., following the manufacturer's instructions. Absorbance was recorded at 490 nm and corrected for background due to nonspecific absorbance (690 nm). Compounds with a low toxicity at 33.3 μM or less were selected as exemplified in FIG. 3 for compounds 19, 22a, 23, 4 and 17.

[2] = tested on: cell surface LDLR activity; assay: Dil-LDL uptake assay in HepG2 naïve cells; details: 33.3 μM; HepG2 naïve cells
Experimental: HepG2 naive cells and HEK293 naive cells were plated in 96-well plates (CellBind black plate with clear bottom (Corning; Cat #3340)) at a density of 25,000 cells/well, in complete media (DMEM high glucose (+sodium pyruvate for HepG2) (Wisent)+10% FBS). After 20 hours, cells were washed for 30 min with serum free DMEM media (100 μl/well), the wash media was removed and replaced with 100 μl/well of incubation media (DMEM high glucose (+sodium pyruvate for HepG2) (Wisent)+0.07% BSA (Sigma-Aldrich)) containing compound at various concentrations ([…]) or DMSO control (0.4% final). Each condition was prepared in triplicates. After 6 hours incubation at 37° C., Dil-LDL (Biomedical Technologies (Cat #BT-904)) was added to the cell media (5 μl) at 5 μg/ml final concentration, and cells returned to tissue culture incubator for another 18 hours (a total of 24 hours incubation with the compounds). After 2 washes (200 μl/well) with ice-cold D-PBS (Wisent) and aspiration of the final wash, plates were scanned (bottom read) on a SpectraMax GeminiEM™ plate reader (Molecular Devices). For each well, raw Dil-LDL uptake was measured as the average fluorescence intensity (RFU) (ex: 520 nm/em: 575 nm, cutoff: 550 nm) of 9 readings in 3 different points in the well. Dil-LDL uptake in each well was corrected for total number of cells by performing a CyQuant™ cell assay (Invitrogen; Cat #C7026). Namely, after recording the Dil fluorescence, the plate was frozen overnight at −80° C. The next day, the plates were thawed at room temperature, the cells lysed according to the manufacturer's protocol, and the number of cells/well was determined by measuring the fluorescence (RFU) of the CyQuant green fluorescent dye bound to the cellular nucleic acids (ex: 485 nm/em: 538 nm, cutoff: 515 nm). For each condition, Dil-RFU was divided by CyQuant-RFU. Corrected dil-LDL uptake is reported as % DMSO control and was obtained from triplicate wells.
The PCSK9 inhibitory compounds were also characterized using a Dil-LDL fluorescent uptake assay as described in Poirier et al., J. Biol. Chem. 284: 28856-28864, 2009. The method entails the fluorescence measurement of the Dil-LDL cellular incorporation via LDLR internalization (a measurement of cell surface LDLR activity) in human hepatocyte derived HuH7 or HepG2 cell lines, or human embryonic HEK293 cells, in the presence or absence of compounds.
HepG2 naïve cells and HEK293 naïve cells were plated in 96-well plates (CellBind™ black plate with clear bottom (Corning; Cat #3340)). At 20 h post-seeding, cells were incubated in the absence (DMSO or negative control) or in the presence of different concentrations of compounds. Each condition was prepared in triplicates. After 6 hours incubation, Dil-LDL (Biomedical Technologies (Cat #BT-904)) was added to the cell media, and cells returned to tissue culture incubator for another 18 hours. Plates were scanned (bottom read) on a SpectraMax GeminiEM™ plate reader (Molecular Devices). For each well, raw Dil-LDL uptake was measured as the average fluorescence intensity (RFU) (ex: 520 nm/em: 575 nm, cutoff: 550 nm) of 9 readings in 3 different points in the well. Dil-LDL uptake in each well was corrected for total number of cells by performing a CyQuant™ cell assay (Invitrogen, Cat #C7026) according to the manufacturer's instructions. Corrected Dil-LDL uptake is reported as a % of DMSO control and was obtained from triplicate wells.

[3] = tested on: cell-surface LDLR; assay: Immunofluorescence of cell-surface LDLR in HepG2 naïve cells; details: 33.3 μM, 20 h, non-permeabilized cells
Experimental: HepG2 naïve cells were plated on Poly-L-Lysine-coated (50 ug/ml) round microscope cover slips 1.12 mm thickness (Fisherbrand 12CIR #1) that were placed in a 24-well cell culture plate. Seeding was performed in DMEM complete media (10% FBS) and 24 hours later the media was swapped for media (+0.07% BSA) containing 33.3 μM of the different inhibitor compounds (300 μl/well). A volume of DMSO equivalent to the volume of inhibitor compound was also diluted in 0.07% BSA containing media and used as a negative control. After a 20 hour incubation period, the cells were washed 3× with PBS and then fixed for 10 min with 3.7% paraformaldehyde. Immunofluorescence of human LDLR (green labeling) was performed under non-permeabilizing conditions. After an additional 3 washes with PBS, cells were blocked for 30 min with 1% BSA, followed by overnight incubation at 4° C. with primary antibody (1:200 goat polyclonal anti-hLDLR in 1% BSA, R&D Systems). […] Immunofluorescence analyses were performed with a confocal miscroscope (Zeiss LSM-710).
The PCSK9 inhibitory compounds were characterized by immunofluorescence for cell-surface LDLR and for human transferrin receptor, as control, in HepG2 naïve cells. Cells were plated on Poly-L-Lysine-coated (50 ug/ml) round microscope cover slips 1.12 mm thickness (Fisherbrand 12CIR #1) that were placed in a 24-well cell culture plate. […]

SMILES	toxicity in MTT assay [1]	Dil-LDL uptake (FIG. 5A, in words) [2]	LDLR at the cell surface (immunofluorescence) [3]
CC(C)[C@H](NC(=O)Cc1ccc(OC(F)(F)F)cc1)C(=O)N[C@@H](Cc1ccccc1)C(=O)N[C@@H](C)C(=O)NC(CCC(N)=O)C(O)C(F)(F)F (stereo partly drawn) [Example 23, 6,6,6-Trifluoro-5-hydroxy-4-((S)-2-((S)-2-((S)-3-methyl-2-(2-(4-(trifluoromethoxy)phenyl)acetamido)butanamido)-3-phenylpropanamido)propanamido)hexanamide]	low toxicity	increase in the Dil-LDL uptake	–
CCCCCCCCCC(=O)N[C@H](C(=O)N[C@@H](Cc1ccccc1)C(=O)N[C@@H](C)C(=O)NCB(O)O)C(C)C [Example 4, {[(2S)-2-[(2S)-2-[(2S)-2-Decanamido-3-methylbutanamido]-3-phenylpropanamido]propanamido]methyl}boronicacid]	low toxicity	–	–
COC(=O)N[C@H](C(=O)N[C@@H](Cc1ccccc1)C(=O)N[C@@H](C)C(=O)NCB(O)O)C(C)C [Example 1]	–	no measurable activity	–
CCCCCCCCCC(=O)N[C@H](C(=O)N[C@@H](Cc1ccccc1)C(=O)N[C@@H](C)C(=O)NC(CCC(N)=O)C(O)CF)C(C)C (stereo partly drawn) [Example 21a, N-((2S)-1-(((2S)-1-(((2S)-1-((6-Amino-1-fluoro-2-hydroxy-6-oxohexan-3-yl)amino)-1-oxopropan-2-yl)amino)-1-oxo-3-phenylpropan-2-yl)amino)-3-methyl-1-oxobutan-2-yl)decanamide]	–	increase in the Dil-LDL uptake	–
COC(=O)CCC(NC(=O)[C@H](C)NC(=O)[C@H](Cc1ccccc1)NC(=O)[C@@H](NC(=O)OC)C(C)C)B(O)O (mixture of isomers) [Example 17, [(1R/S)-4-Methoxy-1-[(2S)-2-[(2S)-2-[(2S)-2-[(methoxycarbonyl)amino]-3-methylbutanamido]-3-phenylpropanamido]propanamido]-4-oxobutyl]boronic acid]	low toxicity	no measurable activity	–
CC(C)[C@H](NC(=O)c1ccc(-c2ccccc2)cc1)C(=O)N[C@@H](Cc1ccccc1)C(=O)N[C@@H](C)C(=O)NCB(O)O [Example 2, {[(2S)-2-[(2S)-2-[(2S)-3-Methyl-2-[(4-phenylphenyl)formamido]butanamido]-3-phenylpropanamido]propanamido]methyl}boronic acid]	–	no measurable activity	–
CCCCCCCCCC(=O)N[C@H](C(=O)N[C@@H](Cc1ccccc1)C(=O)NC(C)C(=O)NC(CCC(N)=O)C(C)O)C(C)C (single isomer, unassigned) [Example 22a]	low toxicity	increase in the Dil-LDL uptake	–
CCCCCCCCCC(=O)N[C@H](C(=O)N[C@@H](Cc1ccccc1)C(=O)N[C@@H](C)C(=O)NC(CCC(N)=O)C(O)C(F)(F)F)C(C)C (stereo partly drawn) [Example 19, N-((2S)-1-(((2S)-1-(((2S)-1-((6-Amino-1,1,1-trifluoro-2-hydroxy-6-oxohexan-3-yl)amino)-1-oxopropan-2-yl)amino)-1-oxo-3-phenylpropan-2-yl)amino)-3-methyl-1-oxobutan-2-yl)decanamide]	low toxicity	increase in the Dil-LDL uptake	increase of LDLR at the cell surface
